{"source": "patent US9623028B2", "about": "“Methods of treating a cancer using substituted pyrrolopyrimidine compounds, compositions thereof” (Signal Pharmaceuticals, LLC, priority 2014, dated 2017)", "test_system": "breast cancer cell lines", "assay": "cells", "settings": "for IC50: read-out: Growth Inhibition IC50; for GI50: read-out: Growth inhibition GI50", "key": {"[1]": {"settings": "Homo sapiens, MDA-MB-175-VII, 96 h"}}, "note": "Read-outs that look alike come from different tables or passages of the source."}
{"compound": "CNC(=O)c1ccc(Nc2nc(OC(C)C)c3c(-c4ccc5nc(C)oc5c4)c[nH]c3n2)c(OC)c1", "note": "[Compound 125, 4-((4-isopropoxy-5-(2-methylbenzo[d]oxazol-6-yl)-7H-pyrrolo[2,3-d]pyrimidin-2-yl)amino)-3-methoxy-N-methylbenzamide]", "values": [{"measurement": "IC50", "setting": "96 h", "value": 419, "unit": "nM"}, {"measurement": "GI50", "setting": "96 h", "value": 116, "unit": "nM"}, {"measurement": "IC50", "setting": "EFM-192A, 96 h", "value": 1280, "unit": "nM"}, {"measurement": "GI50", "setting": "EFM-192A, 96 h", "value": 294, "unit": "nM"}, {"measurement": "IC50", "setting": "HCC202, 96 h", "value": 190, "unit": "nM"}, {"measurement": "GI50", "setting": "HCC202, 96 h", "value": 28, "unit": "nM"}, {"measurement": "IC50", "setting": "HCC1500, 96 h", "value": 2280, "unit": "nM"}, {"measurement": "GI50", "setting": "HCC1500, 96 h", "value": 103, "unit": "nM"}, {"measurement": "IC50", "setting": "Homo sapiens, AU565, 96 h", "value": 21, "unit": "nM"}, {"measurement": "GI50", "setting": "Homo sapiens, AU565, 96 h", "value": 16, "unit": "nM"}, {"measurement": "IC50", "setting": "Homo sapiens, BT-20, 96 h", "value": 44, "unit": "nM"}, {"measurement": "GI50", "setting": "Homo sapiens, BT-20, 96 h", "value": 28, "unit": "nM"}, {"measurement": "IC50", "setting": "Homo sapiens, BT-474, 96 h", "value": 595, "unit": "nM"}, {"measurement": "GI50", "setting": "Homo sapiens, BT-474, 96 h", "value": 10000, "unit": "nM"}, {"measurement": "IC50", "setting": "Homo sapiens, BT-483, 96 h", "value": 3400, "unit": "nM"}, {"measurement": "IC50", "setting": "Homo sapiens, BT-549, 96 h", "value": 66, "unit": "nM"}, {"measurement": "GI50", "setting": "Homo sapiens, BT-549, 96 h", "value": 34, "unit": "nM"}, {"measurement": "IC50", "setting": "Homo sapiens, CAL-51, 96 h", "value": 10, "unit": "nM"}, {"measurement": "GI50", "setting": "Homo sapiens, CAL-51, 96 h", "value": 9, "unit": "nM"}, {"measurement": "IC50", "setting": "Homo sapiens, CAL-85-1, 96 h", "value": 93, "unit": "nM"}, {"measurement": "GI50", "setting": "Homo sapiens, CAL-85-1, 96 h", "value": 29, "unit": "nM"}, {"measurement": "IC50", "setting": "Homo sapiens, CAL-120, 96 h", "value": 272, "unit": "nM"}, {"measurement": "GI50", "setting": "Homo sapiens, CAL-120, 96 h", "value": 10000, "unit": "nM"}, {"measurement": "IC50", "setting": "Homo sapiens, CAL-148, 96 h", "value": 168, "unit": "nM"}, {"measurement": "GI50", "setting": "Homo sapiens, CAL-148, 96 h", "value": 47, "unit": "nM"}, {"measurement": "IC50", "setting": "Homo sapiens, CAMA-1, 96 h", "value": 763, "unit": "nM"}, {"measurement": "GI50", "setting": "Homo sapiens, CAMA-1, 96 h", "value": 590, "unit": "nM"}, {"measurement": "IC50", "setting": "Homo sapiens, DU-4475, 96 h", "value": 246, "unit": "nM"}, {"measurement": "GI50", "setting": "Homo sapiens, DU-4475, 96 h", "value": 38, "unit": "nM"}, {"measurement": "IC50", "setting": "Homo sapiens, EFM-19, 96 h", "value": 181, "unit": "nM"}, {"measurement": "GI50", "setting": "Homo sapiens, EFM-19, 96 h", "value": 35, "unit": "nM"}, {"measurement": "IC50", "setting": "Homo sapiens, EVSA-T, 96 h", "value": 206, "unit": "nM"}, {"measurement": "GI50", "setting": "Homo sapiens, EVSA-T, 96 h", "value": 6000, "unit": "nM"}, {"measurement": "IC50", "setting": "Homo sapiens, HCC38, 96 h", "value": 12, "unit": "nM"}, {"measurement": "GI50", "setting": "Homo sapiens, HCC38, 96 h", "value": 9, "unit": "nM"}, {"measurement": "IC50", "setting": "Homo sapiens, HCC70, 96 h", "value": 268, "unit": "nM"}, {"measurement": "GI50", "setting": "Homo sapiens, HCC70, 96 h", "value": 47, "unit": "nM"}, {"measurement": "IC50", "setting": "Homo sapiens, HCC1143, 96 h", "value": 481, "unit": "nM"}, {"measurement": "GI50", "setting": "Homo sapiens, HCC1143, 96 h", "value": 215, "unit": "nM"}, {"measurement": "IC50", "setting": "Homo sapiens, HCC1187, 96 h", "value": 31, "unit": "nM"}, {"measurement": "GI50", "setting": "Homo sapiens, HCC1187, 96 h", "value": 27, "unit": "nM"}, {"measurement": "IC50", "setting": "Homo sapiens, HCC1419, 96 h", "value": 2510, "unit": "nM"}, {"measurement": "GI50", "setting": "Homo sapiens, HCC1419, 96 h", "value": 10000, "unit": "nM"}, {"measurement": "IC50", "setting": "Homo sapiens, HCC1428, 96 h", "value": 472, "unit": "nM"}, {"measurement": "GI50", "setting": "Homo sapiens, HCC1428, 96 h", "value": 326, "unit": "nM"}, {"measurement": "IC50", "setting": "Homo sapiens, HCC1569, 96 h", "value": 408, "unit": "nM"}, {"measurement": "GI50", "setting": "Homo sapiens, HCC1569, 96 h", "value": 88, "unit": "nM"}, {"measurement": "IC50", "setting": "Homo sapiens, HCC1806, 96 h", "value": 11, "unit": "nM"}, {"measurement": "GI50", "setting": "Homo sapiens, HCC1806, 96 h", "value": 8, "unit": "nM"}, {"measurement": "IC50", "setting": "Homo sapiens, HCC1937, 96 h", "value": 311, "unit": "nM"}, {"measurement": "GI50", "setting": "Homo sapiens, HCC1937, 96 h", "value": 6380, "unit": "nM"}, {"measurement": "IC50", "setting": "Homo sapiens, HCC1954, 96 h", "value": 68, "unit": "nM"}, {"measurement": "GI50", "setting": "Homo sapiens, HCC1954, 96 h", "value": 27, "unit": "nM"}, {"measurement": "IC50", "setting": "Homo sapiens, HDQ-P1, 96 h", "value": 83, "unit": "nM"}, {"measurement": "GI50", "setting": "Homo sapiens, HDQ-P1, 96 h", "value": 106, "unit": "nM"}, {"measurement": "IC50", "setting": "Homo sapiens, Hs-578T, 96 h", "value": 41, "unit": "nM"}, {"measurement": "GI50", "setting": "Homo sapiens, Hs-578T, 96 h", "value": 47, "unit": "nM"}, {"measurement": "IC50", "setting": "Homo sapiens, JIMT-1, 96 h", "value": 165, "unit": "nM"}, {"measurement": "GI50", "setting": "Homo sapiens, JIMT-1, 96 h", "value": 61, "unit": "nM"}, {"measurement": "IC50", "setting": "Homo sapiens, MCF7, 96 h", "value": 12, "unit": "nM"}, {"measurement": "GI50", "setting": "Homo sapiens, MCF7, 96 h", "value": 11, "unit": "nM"}, {"measurement": "IC50", "setting": "Homo sapiens, MDA-MB-134-VI, 96 h", "value": 3170, "unit": "nM"}, {"measurement": "IC50", "setting": "Homo sapiens, MDA-MB-157, 96 h", "value": 631, "unit": "nM"}, {"measurement": "GI50", "setting": "Homo sapiens, MDA-MB-157, 96 h", "value": 114, "unit": "nM"}, {"measurement": "IC50", "setting": "[1]", "value": 2840, "unit": "nM"}, {"measurement": "GI50", "setting": "[1]", "value": 5280, "unit": "nM"}, {"measurement": "IC50", "setting": "Homo sapiens, MDA-MB-231, 96 h", "value": 31, "unit": "nM"}, {"measurement": "GI50", "setting": "Homo sapiens, MDA-MB-231, 96 h", "value": 19, "unit": "nM"}, {"measurement": "IC50", "setting": "Homo sapiens, MDA-MB-361, 96 h", "value": 1470, "unit": "nM"}, {"measurement": "GI50", "setting": "Homo sapiens, MDA-MB-361, 96 h", "value": 91, "unit": "nM"}, {"measurement": "IC50", "setting": "Homo sapiens, MDA-MB-415, 96 h", "value": 5510, "unit": "nM"}, {"measurement": "GI50", "setting": "Homo sapiens, MDA-MB-415, 96 h", "value": 10000, "unit": "nM"}, {"measurement": "IC50", "setting": "Homo sapiens, MDA-MB-436, 96 h", "value": 510, "unit": "nM"}, {"measurement": "GI50", "setting": "Homo sapiens, MDA-MB-436, 96 h", "value": 999, "unit": "nM"}, {"measurement": "IC50", "setting": "Homo sapiens, MDA-MB-453, 96 h", "value": 668, "unit": "nM"}, {"measurement": "GI50", "setting": "Homo sapiens, MDA-MB-453, 96 h", "value": 10000, "unit": "nM"}, {"measurement": "IC50", "setting": "Homo sapiens, MDA-MB-468, 96 h", "value": 24, "unit": "nM"}, {"measurement": "GI50", "setting": "Homo sapiens, MDA-MB-468, 96 h", "value": 23, "unit": "nM"}, {"measurement": "IC50", "setting": "Homo sapiens, MFM-223, 96 h", "value": 172, "unit": "nM"}, {"measurement": "GI50", "setting": "Homo sapiens, MFM-223, 96 h", "value": 43, "unit": "nM"}, {"measurement": "IC50", "setting": "Homo sapiens, SK-BR-3, 96 h", "value": 272, "unit": "nM"}, {"measurement": "GI50", "setting": "Homo sapiens, SK-BR-3, 96 h", "value": 81, "unit": "nM"}, {"measurement": "IC50", "setting": "Homo sapiens, T47D, 96 h", "value": 336, "unit": "nM"}, {"measurement": "GI50", "setting": "Homo sapiens, T47D, 96 h", "value": 81, "unit": "nM"}, {"measurement": "IC50", "setting": "Homo sapiens, UACC-812, 96 h", "value": 296, "unit": "nM"}, {"measurement": "GI50", "setting": "Homo sapiens, UACC-812, 96 h", "value": 319, "unit": "nM"}, {"measurement": "IC50", "setting": "Homo sapiens, UACC-893, 96 h", "value": 787, "unit": "nM"}, {"measurement": "IC50", "setting": "Homo sapiens, ZR-75-1, 96 h", "value": 3310, "unit": "nM"}, {"measurement": "GI50", "setting": "Homo sapiens, ZR-75-1, 96 h", "value": 32, "unit": "nM"}, {"measurement": "IC50", "setting": "Homo sapiens, ZR-75-30, 96 h", "value": 715, "unit": "nM"}, {"measurement": "IC50", "setting": "KPL-1, 96 h", "value": 64, "unit": "nM"}, {"measurement": "GI50", "setting": "KPL-1, 96 h", "value": 126, "unit": "nM"}, {"measurement": "IC50", "setting": "MT-3, 96 h", "value": 8500, "unit": "nM"}, {"measurement": "GI50", "setting": "MT-3, 96 h", "value": 5760, "unit": "nM"}]}
